The record followed here is article PMC3022373 (Journal of medicinal chemistry, 2010).

In the test the target is T1, hiCE (Homo sapiens, UniProt O00748).
T1 sequence (O00748 27-559): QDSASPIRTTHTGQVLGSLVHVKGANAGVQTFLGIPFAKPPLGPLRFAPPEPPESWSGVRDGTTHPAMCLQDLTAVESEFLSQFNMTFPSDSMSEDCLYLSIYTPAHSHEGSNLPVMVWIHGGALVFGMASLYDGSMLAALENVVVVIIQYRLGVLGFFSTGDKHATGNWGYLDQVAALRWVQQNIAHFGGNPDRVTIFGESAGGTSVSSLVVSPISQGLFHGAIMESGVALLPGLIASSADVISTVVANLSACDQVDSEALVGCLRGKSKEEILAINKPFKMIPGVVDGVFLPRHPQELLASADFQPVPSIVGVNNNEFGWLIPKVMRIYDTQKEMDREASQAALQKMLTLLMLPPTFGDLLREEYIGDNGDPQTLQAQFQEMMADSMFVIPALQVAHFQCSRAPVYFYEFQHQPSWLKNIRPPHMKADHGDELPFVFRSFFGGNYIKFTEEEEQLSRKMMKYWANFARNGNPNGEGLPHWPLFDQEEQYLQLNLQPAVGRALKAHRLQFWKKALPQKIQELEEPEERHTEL
Format: biochemical.

On to `O=C(C(=O)c1ccccn1)c1cccc(NC(=O)c2ccc(Cl)cc2Cl)c1` [15d], for which the “selectivity in favor of hiCE inhibition versus hCE1” value is ≥ 100 fold. On to `O=C(Nc1cccc(C(=O)C(=O)c2ccccn2)c1)c1ccc(C(F)(F)F)cc1` [15f], for which the “selectivity in favor of hiCE inhibition versus hCE1” value is listed as ≥ 100 fold.
